US20140187559A1, “INHIBITORS OF THE FIBROBLAST GROWTH FACTOR RECEPTOR” (BLUEPRINT MEDICINES CORPORATION, priority 2012, published 2014)

Legend:
wild type FGFR-4 = biological target: T1, wild type FGFR-4 (Homo sapiens, UniProt P22455); test: FGFR-4 wild type assay at Km (Caliper mobility shift); type: biochemical; conditions: for Ratio FGFR1/FGFR4: [IC50 for FGFR1]/[IC50 for FGFR4]; for IC50: 400 uM ATP, 25 C, 90 minutes, read-out: FGFR4 IC50
T1 construct: purchased Carna Biosciences, Inc
Description: (§1) In order to assess the activity of chemical compounds against the relevant kinase of interest, the Caliper LifeSciences electrophoretic mobility shift technology platform is utilized. Fluorescently labeled substrate peptide is incubated in the presence dosed levels of compounds, a set concentration of kinase and of ATP, so that a reflective proportion of the peptide is phosphorylated. At the end of the reaction, the mix of phosphorylated (product) and non-phosphorylated (substrate) peptides are passed through the microfluidic system of the Caliper LabChip® EZ Reader II, under an applied potential difference. The presence of the phosphate group on the product peptide provides a difference in mass and charge between the product peptide and the substrate peptide, resulting in a separation of the substrate and product pools in the sample. As the pools pass the LEDS within the instrument, these pools are detected and resolved as separate peaks. The ratio between these peaks therefore reflects the activity of the chemical matter at that concentration in that well, under those conditions.
(§2) The reaction was stopped by the addition of 70 ul of Stop buffer (100 mM HEPES pH 7.5, 0.015% Brij 35, 35 mM EDTA and 0.2% of Coating Reagent 3 (Caliper Lifesciences)). The plate was then read on a Caliper LabChip® EZ Reader II (protocol settings: —1.9 psi, upstream voltage—700, downstream voltage—3000, post sample sip 35 s).

wild type FGFR-1 = biological target: T2, wild type FGFR-1 (Homo sapiens, UniProt P11362); test: FGFR-1 wild type assay at Km (Caliper mobility shift); type: biochemical; conditions: 400 uM ATP, 25 C, 90 minutes; read-out: FGFR1 IC50
T2 construct: purchased Carna Biosciences, Inc
T2 sequence (P11362 22-822): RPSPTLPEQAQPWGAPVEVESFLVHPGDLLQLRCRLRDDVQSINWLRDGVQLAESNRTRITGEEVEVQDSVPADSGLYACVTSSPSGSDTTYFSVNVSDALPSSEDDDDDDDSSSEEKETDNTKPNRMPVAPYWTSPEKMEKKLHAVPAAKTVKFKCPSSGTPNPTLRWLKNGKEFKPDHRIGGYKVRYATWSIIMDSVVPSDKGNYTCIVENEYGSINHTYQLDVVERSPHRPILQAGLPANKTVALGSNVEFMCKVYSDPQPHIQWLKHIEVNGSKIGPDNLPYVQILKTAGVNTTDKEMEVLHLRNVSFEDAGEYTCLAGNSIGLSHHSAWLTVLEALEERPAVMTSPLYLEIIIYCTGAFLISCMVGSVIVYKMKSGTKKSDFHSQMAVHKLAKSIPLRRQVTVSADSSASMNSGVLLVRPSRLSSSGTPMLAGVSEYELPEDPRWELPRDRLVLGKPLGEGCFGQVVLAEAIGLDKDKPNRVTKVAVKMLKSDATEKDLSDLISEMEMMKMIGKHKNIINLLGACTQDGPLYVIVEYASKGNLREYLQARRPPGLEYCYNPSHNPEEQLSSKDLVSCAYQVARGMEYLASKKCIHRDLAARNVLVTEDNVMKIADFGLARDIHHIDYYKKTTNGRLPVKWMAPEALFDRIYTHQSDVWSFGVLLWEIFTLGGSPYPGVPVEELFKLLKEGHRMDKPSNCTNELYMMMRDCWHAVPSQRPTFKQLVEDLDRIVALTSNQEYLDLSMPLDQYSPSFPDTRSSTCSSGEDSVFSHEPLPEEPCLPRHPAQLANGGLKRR
Description: as §1
as §2, with “EZReader 2” for “LabChip® EZ Reader II”

T1 sequence (P22455 22-802): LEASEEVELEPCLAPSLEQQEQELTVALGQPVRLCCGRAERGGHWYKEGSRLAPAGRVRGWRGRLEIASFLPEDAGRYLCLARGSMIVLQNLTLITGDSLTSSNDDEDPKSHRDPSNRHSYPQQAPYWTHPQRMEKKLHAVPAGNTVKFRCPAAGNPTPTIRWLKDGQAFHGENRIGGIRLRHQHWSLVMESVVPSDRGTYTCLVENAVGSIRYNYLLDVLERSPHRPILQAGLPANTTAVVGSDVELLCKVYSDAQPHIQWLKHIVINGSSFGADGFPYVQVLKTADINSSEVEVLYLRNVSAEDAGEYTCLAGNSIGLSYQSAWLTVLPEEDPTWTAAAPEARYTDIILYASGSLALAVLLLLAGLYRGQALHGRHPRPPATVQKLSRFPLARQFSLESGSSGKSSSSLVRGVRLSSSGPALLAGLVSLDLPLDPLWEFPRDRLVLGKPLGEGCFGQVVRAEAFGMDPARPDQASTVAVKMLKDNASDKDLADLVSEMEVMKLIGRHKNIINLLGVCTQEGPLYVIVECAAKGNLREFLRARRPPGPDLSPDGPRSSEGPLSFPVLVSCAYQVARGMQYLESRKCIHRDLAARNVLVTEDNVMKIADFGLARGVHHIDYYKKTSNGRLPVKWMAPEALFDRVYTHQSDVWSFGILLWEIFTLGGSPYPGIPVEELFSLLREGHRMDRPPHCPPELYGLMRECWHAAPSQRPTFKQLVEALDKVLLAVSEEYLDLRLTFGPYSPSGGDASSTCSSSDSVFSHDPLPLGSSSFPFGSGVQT

| Ratio FGFR1/FGFR4 (wild type FGFR-4) | IC50 (wild type FGFR-4) [nM] | IC50 (wild type FGFR-1) [nM] | Structure (SMILES) |
| --- | --- | --- | --- |
| E (the ratio is ≧10 and <50) |  |  | C=CC(=O)Nc1cccc(C)c1Nc1ncc2cc(-c3cc(OC)cc(OC)c3)cnc2n1 [COMPOUND 10, N-(2-((6-(3,5-dimethoxyphenyl)pyrido[2,3-d]pyrimidin-2-yl)amino)-3-methylphenyl)acrylamide] |
| D (the ratio is ≧50 and <100) | 10 to 100 |  | C=CC(=O)Nc1cccc(C)c1Nc1ncc2cc(-c3c(Cl)cccc3Cl)ccc2n1 [COMPOUND 13] |
| B (the ratio is ≧200 and <500) | 10 to 100 |  | C=CC(=O)Nc1ccccc1Nc1cc2c(cn1)cc(-c1cc(OC)cc(OC)c1)c(=O)n2C [COMPOUND 15] |
| E (the ratio is ≧10 and <50) | 10 to 100 |  | C=CC(=O)Nc1cccc(C)c1Nc1ncc2cc(-c3c(Cl)ccc(OC)c3F)ccc2n1 [COMPOUND 17A] |
| B (the ratio is ≧200 and <500) | 10 to 100 |  | C=CC(=O)Nc1cccc(Cl)c1Nc1ncc2cc(-c3cc(C(N)=O)ccc3C)ccc2n1 [COMPOUND 17] |
| B (the ratio is ≧200 and <500) | 10 to 100 |  | C=CC(=O)Nc1cccc(C)c1Nc1ncc2cc(-c3c(Cl)cccc3Cl)c(=O)n(C)c2n1 [COMPOUND 22] |
| D (the ratio is ≧50 and <100) | 100 to 1000 |  | C=CC(=O)Nc1cccc(C)c1Oc1ncc2cc(-c3c(Cl)c(OC)cc(OC)c3Cl)ccc2n1 [COMPOUND 25A] |
|  |  | 100 to 1000 | C=CC(=O)Nc1cccc(C)c1Nc1ncc2cc(-c3c(Cl)c(OC)cc(OC)c3Cl)cnc2n1 [COMPOUND 26, N-(2-((6-(2,6-dichloro-3,5-dimethoxyphenyl)pyrido[2,3-d]pyrimidin-2-yl)amino)-3-methylphenyl)acrylamide] |
|  |  | 100 to 1000 | C=C(C)C(=O)Nc1cccc(C)c1Nc1ncc2cc(-c3c(Cl)c(OC)cc(OC)c3Cl)ccc2n1 [COMPOUND 29] |
| C (the ratio is ≧100 and <200) |  |  | C=CC(=O)Nc1cc(F)cc(C)c1Nc1ncc2cc(-c3c(Cl)c(OC)cc(OC)c3Cl)ccc2n1 [COMPOUND 32] |
|  | 10 to 100 |  | C=CC(=O)Nc1ccc(F)c(C)c1Nc1ncc2cc(-c3c(Cl)c(OC)cc(OC)c3Cl)ccc2n1 [COMPOUND 33] |
|  |  | 100 to 1000 | C=CC(=O)Nc1cccc(C)c1Nc1ncc2cc(-c3c(Cl)c(OC)cc(OC)c3Cl)cc(F)c2n1 [COMPOUND 34, N-(2-((6-(2,6-dichloro-3,5-dimethoxyphenyl)-8-fluoroquinazolin-2-yl)amino)-3-methylphenyl)acrylamide] |
| B (the ratio is ≧200 and <500) | 100 to 1000 |  | C=CC(=O)Nc1cc(F)cc(F)c1Nc1ncc2cc(-c3c(Cl)c(OC)cc(OC)c3Cl)ccc2n1 [COMPOUND 36] |
| E (the ratio is ≧10 and <50) |  |  | C=CC(=O)Nc1cccc(C)c1Nc1cc2c(cn1)cc(-c1c(Cl)c(OC)cc(OC)c1Cl)c(=O)n2C [COMPOUND 39] |
|  |  | 100 to 1000 | C=CC(=O)Nc1cccc(C)c1Nc1ncc2cc(-c3c(Cl)c(OC)cc(OC)c3Cl)cc(OC)c2n1 [COMPOUND 41] |
|  |  | 10 to 100 | C=CC(=O)Nc1cccc(C)c1Nc1ncc2cc(-c3c(Cl)c(OC)cc(OC)c3Cl)c(OC)cc2n1 [COMPOUND 42, N-(2-((6-(2,6-dichloro-3,5-dimethoxyphenyl)-7-methoxyquinazolin-2-yl)amino)-3-methylphenyl)acrylamide] |
| E (the ratio is ≧10 and <50) | 100 to 1000 |  | C=CC(=O)Nc1ccccc1Nc1cc2nc(NC(=O)NC(C)(C)C)c(-c3cc(OC)cc(OC)c3)cc2cn1 [COMPOUND 44] |
| E (the ratio is ≧10 and <50) |  |  | C=CC(=O)Nc1cccc(C)c1Nc1ncc2nc(-c3c(Cl)c(OC)cc(OC)c3Cl)c(=O)n(C)c2n1 [COMPOUND 45, N-(2-((6-(2,6-dichloro-3,5-dimethoxyphenyl)-8-methyl-7-oxo-7,8-dihydropteridin-2-yl)amino)-3-methylphenyl)acrylamide] |
|  | 10 to 100 |  | C=CC(=O)Nc1cc(Cl)cc(C)c1Nc1ncc2cc(-c3c(Cl)c(OC)cc(OC)c3Cl)ccc2n1 [COMPOUND 49] |

Second part, the molecule before the results:

| Structure (SMILES) | Ratio FGFR1/FGFR4 (wild type FGFR-4) | IC50 (wild type FGFR-4) [nM] | IC50 (wild type FGFR-1) [nM] |
| --- | --- | --- | --- |
| C=CC(=O)N(C)c1ncc2cc(-c3cc(OC)cc(OC)c3)ccc2n1 [COMPOUND 1] | C (the ratio is ≧100 and <200) |  |  |
| C=CC(=O)N(C)c1ncc2cc(-c3c(Cl)cccc3Cl)ccc2n1 [COMPOUND 2] | D (the ratio is ≧50 and <100) | 100 to 1000 |  |
| C=CC(=O)N(C)c1ncc2c(n1)N(C)C(=O)N(c1cc(OC)cc(OC)c1)C2 [COMPOUND 5] |  | 10 to 100 |  |
| C=CC(=O)Nc1cccc(C)c1Nc1ncc(C#Cc2cc(OC)cc(OC)c2)cn1 [COMPOUND 6, N-(2-((5-((3,5-dimethoxyphenyl)ethynyl)pyrimidin-2-yl)amino)-3-methylphenyl)acrylamide] |  | 100 to 1000 |  |
| C=CC(=O)Nc1cccc(C)c1Nc1ncc2cc(-c3cc(C(N)=O)ccc3F)ccc2n1 [COMPOUND 9] | D (the ratio is ≧50 and <100) | 100 to 1000 |  |
| C=CC(=O)Nc1ccccc1Nc1nccc(N2CCCC(NS(=O)(=O)CCC)C2)n1 (stereo not shown) [COMPOUND 11, N-(2-((4-(3-(propylsulfonamido)piperidin-1-yl)pyrimidin-2-yl)amino)phenyl)acrylamide] |  | 100 to 1000 |  |
| C#CC(=O)NCc1cccn2c(-c3cc(NC(=O)NCC(F)(F)F)cc(OC(C)C)c3)cnc12 [COMPOUND 20, N-((3-(3-isopropoxy-5-(3-(2,2,2-trifluoroethyl)ureido)phenyl)imidazo[1,2-a]pyridin-8-yl)methyl)propiolamide] |  | 10 to 100 |  |
| C=CC(=O)Nc1ccccc1-c1ccn2c(-c3cccc(NC(=O)NCC(F)(F)F)c3)cnc2c1 [COMPOUND 21, N-(2-(3-(3-(3-(2,2,2-trifluoroethyl)ureido)phenyl)imidazo[1,2-a]pyridin-7-yl)phenyl)acrylamide] | B (the ratio is ≧200 and <500) | 100 to 1000 |  |
| C=CC(=O)Nc1cccc(C)c1Nc1ncc(C#Cc2c(Cl)c(OC)cc(OC)c2Cl)cn1 [COMPOUND 24, N-(2-((5-((2,6-dichloro-3,5-dimethoxyphenyl)ethynyl)pyrimidin-2-yl)amino)-3-methylphenyl)acrylamide] |  | 10 to 100 |  |
| C=CC(=O)Nc1cccc(OC)c1Nc1ncc2cc(-c3c(Cl)c(OC)cc(OC)c3Cl)ccc2n1 [COMPOUND 30, N-(2-((6-(2,6-dichloro-3,5-dimethoxyphenyl)quinazolin-2-yl)amino)-3-methoxyphenyl)acrylamide] |  |  | 100 to 1000 |
| C=CC(=O)Nc1ccccc1Nc1ncc2cc(-c3c(Cl)c(OC)cc(OC)c3Cl)c(=O)n(C)c2c1C [COMPOUND 40, N-(2-((3-(2,6-dichloro-3,5-dimethoxyphenyl)-1,8-dimethyl-2-oxo-1,2-dihydro-1,6-naphthyridin-7-yl)amino)phenyl)acrylamide] |  | 100 to 1000 |  |
| C=CC(=O)Nc1ccccc1Nc1ncc(Cl)c(N2CCN(C(=O)Nc3cccc(C(F)(F)F)c3)CC2)n1 [COMPOUND 50, 4-(2-((2-acrylamidophenyl)amino)-5-chloropyrimidin-4-yl)-N-(3-(trifluoromethyl)phenyl)piperazine-1-carboxamide] |  | 100 to 1000 |  |
| C=CC(=O)Nc1cc(C(=O)NC2CCN(C)CC2)ccc1Nc1ncc(C)c(N2CCN(C(=O)Nc3ccc(C#N)cc3)CC2)n1 [COMPOUND 54, 4-(2-((2-acrylamido-4-((1-methylpiperidin-4-yl)carbamoyl)phenyl)amino)-5-methylpyrimidin-4-yl)-N-(4-cyanophenyl)piperazine-1-carboxamide] |  | 10 to 100 |  |
